From PubChem BioAssay (NCI)
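Cells were grown in 96-well plates and exposed to each compound for 48 hours at five concentrations; endpoints were interpolated linearly between bracketing concentrations, or set to the highest concentration if not reached. GI50: concentration for 50% inhibition of growth. TGI is the concentration that stops growth completely.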

Legend:
Assay in all cases: inhibition of tumour cell growth, NCI panel, 48 h
SN12C renal = tested on: SN12C renal
UACC-62 melanoma = tested on: UACC-62 melanoma
HT29 colon = tested on: HT29 colon
SK-MEL-5 melanoma = tested on: SK-MEL-5 melanoma
UO-31 renal = tested on: UO-31 renal
HS 578T breast = tested on: HS 578T breast
PC-3 prostate = tested on: PC-3 prostate
OVCAR-8 ovarian = tested on: OVCAR-8 ovarian
SK-OV-3 ovarian = tested on: SK-OV-3 ovarian
OVCAR-3 ovarian = tested on: OVCAR-3 ovarian
EKVX NSCLC = tested on: EKVX NSCLC
IGROV1 ovarian = tested on: IGROV1 ovarian
KM12 colon = tested on: KM12 colon
RPMI-8226 leukemia = tested on: RPMI-8226 leukemia
K-562 leukemia = tested on: K-562 leukemia
HOP-62 NSCLC = tested on: HOP-62 NSCLC
COLO 205 colon = tested on: COLO 205 colon
BT-549 breast = tested on: BT-549 breast
RXF 393 renal = tested on: RXF 393 renal
SF-539 CNS = tested on: SF-539 CNS
NCI-H23 lung = tested on: NCI-H23 lung
HCC-2998 colon = tested on: HCC-2998 colon
MCF7 breast = tested on: MCF7 breast
M14 melanoma = tested on: M14 melanoma
SNB-19 CNS = tested on: SNB-19 CNS
A498 renal = tested on: A498 renal
UACC-257 melanoma = tested on: UACC-257 melanoma
OVCAR-4 ovarian = tested on: OVCAR-4 ovarian
786-0 renal = tested on: 786-0 renal
NCI-H522 lung = tested on: NCI-H522 lung
SR leukemia = tested on: SR leukemia
SNB-75 CNS = tested on: SNB-75 CNS
MDA-MB-231 breast = tested on: MDA-MB-231 breast
SK-MEL-28 melanoma = tested on: SK-MEL-28 melanoma
NCI-H226 lung = tested on: NCI-H226 lung
ACHN renal = tested on: ACHN renal
MDA-MB-435 = tested on: MDA-MB-435
SW-620 colon = tested on: SW-620 colon
MOLT-4 leukemia = tested on: MOLT-4 leukemia
LOX IMVI melanoma = tested on: LOX IMVI melanoma
CAKI-1 renal = tested on: CAKI-1 renal
NCI/ADR-RES ovarian = tested on: NCI/ADR-RES ovarian
SF-268 CNS = tested on: SF-268 CNS
HCT-116 colon = tested on: HCT-116 colon
TK-10 renal = tested on: TK-10 renal
HOP-92 NSCLC = tested on: HOP-92 NSCLC
MALME-3M melanoma = tested on: MALME-3M melanoma
OVCAR-5 ovarian = tested on: OVCAR-5 ovarian
A549 NSCLC = tested on: A549 NSCLC
T-47D breast = tested on: T-47D breast
CCRF-CEM leukemia = tested on: CCRF-CEM leukemia
SK-MEL-2 melanoma = tested on: SK-MEL-2 melanoma
NCI-H460 lung = tested on: NCI-H460 lung
SF-295 CNS = tested on: SF-295 CNS
HL-60(TB) leukemia = tested on: HL-60(TB) leukemia
HCT-15 colon = tested on: HCT-15 colon
U251 CNS = tested on: U251 CNS
DU-145 prostate = tested on: DU-145 prostate

C=CC(=O)N1CCC([C@@H]2CCNc3c(C(N)=O)c(-c4ccc(Oc5ccccc5)cc4)nn32)CC1
GI50 (SN12C renal): 12.1 µM | TGI (SN12C renal): 80.4 µM | GI50 (UACC-62 melanoma): 11.4 µM | TGI (UACC-62 melanoma): 26.6 µM | GI50 (HT29 colon): 16.5 µM | TGI (HT29 colon): > 71.1 µM | GI50 (SK-MEL-5 melanoma): 14.5 µM | TGI (SK-MEL-5 melanoma): 28.7 µM | GI50 (UO-31 renal): 2960 nM | TGI (UO-31 renal): > 66.4 µM | GI50 (HS 578T breast): 14.7 µM | TGI (HS 578T breast): 46.8 µM | GI50 (PC-3 prostate): 20.5 µM | TGI (PC-3 prostate): 69.3 µM | GI50 (OVCAR-8 ovarian): 13.8 µM | TGI (OVCAR-8 ovarian): 74.2 µM | GI50 (SK-OV-3 ovarian): 338 nM | TGI (SK-OV-3 ovarian): 14.2 µM | GI50 (OVCAR-3 ovarian): 11 µM | TGI (OVCAR-3 ovarian): 32 µM | GI50 (EKVX NSCLC): 2350 nM | TGI (EKVX NSCLC): > 100 µM | GI50 (IGROV1 ovarian): 912 nM | TGI (IGROV1 ovarian): 16.7 µM | GI50 (KM12 colon): 31.5 µM | TGI (KM12 colon): 98.9 µM | GI50 (RPMI-8226 leukemia): 14.5 µM | TGI (RPMI-8226 leukemia): 42.8 µM | GI50 (K-562 leukemia): 25.3 µM | TGI (K-562 leukemia): > 100 µM | GI50 (HOP-62 NSCLC): 16.9 µM | TGI (HOP-62 NSCLC): > 75.1 µM | GI50 (COLO 205 colon): 22.1 µM | TGI (COLO 205 colon): > 74.3 µM | GI50 (BT-549 breast): 11.9 µM | TGI (BT-549 breast): 31 µM | GI50 (RXF 393 renal): 9.05 µM | TGI (RXF 393 renal): 25.5 µM | GI50 (SF-539 CNS): 16.8 µM | TGI (SF-539 CNS): 56.4 µM | GI50 (NCI-H23 lung): 17.5 µM | TGI (NCI-H23 lung): 43.2 µM | GI50 (HCC-2998 colon): 14.2 µM | TGI (HCC-2998 colon): 29.6 µM | GI50 (MCF7 breast): 23.1 µM | TGI (MCF7 breast): > 100 µM | GI50 (M14 melanoma): 14.4 µM | TGI (M14 melanoma): 31.9 µM | GI50 (SNB-19 CNS): 16.9 µM | TGI (SNB-19 CNS): > 100 µM | GI50 (A498 renal): 1670 nM | TGI (A498 renal): 9.25 µM | GI50 (UACC-257 melanoma): 16.5 µM | TGI (UACC-257 melanoma): 50.4 µM | GI50 (OVCAR-4 ovarian): 13.5 µM | TGI (OVCAR-4 ovarian): 97.2 µM | GI50 (786-0 renal): 12.9 µM | TGI (786-0 renal): 53.1 µM | GI50 (NCI-H522 lung): 3.06 µM | TGI (NCI-H522 lung): 20.3 µM | GI50 (SR leukemia): 23.9 µM | TGI (SR leukemia): > 100 µM | GI50 (SNB-75 CNS): 5.39 µM | TGI (SNB-75 CNS): 30.6 µM | GI50 (MDA-MB-231 breast): 18.4 µM | TGI (MDA-MB-231 breast): 56.4 µM | GI50 (SK-MEL-28 melanoma): 15.6 µM | TGI (SK-MEL-28 melanoma): 30.6 µM | GI50 (NCI-H226 lung): 11.9 µM | TGI (NCI-H226 lung): 42.5 µM | GI50 (ACHN renal): 2340 nM | TGI (ACHN renal): > 62.6 µM | GI50 (MDA-MB-435): 17.8 µM | TGI (MDA-MB-435): 44.6 µM | GI50 (SW-620 colon): 19.2 µM | TGI (SW-620 colon): 46.1 µM | GI50 (MOLT-4 leukemia): 15.9 µM | TGI (MOLT-4 leukemia): > 93.6 µM | GI50 (LOX IMVI melanoma): 15.2 µM | TGI (LOX IMVI melanoma): 36.3 µM | GI50 (CAKI-1 renal): 10.4 µM | TGI (CAKI-1 renal): 44.7 µM | GI50 (NCI/ADR-RES ovarian): 17.8 µM | TGI (NCI/ADR-RES ovarian): > 96.6 µM | GI50 (SF-268 CNS): 9.07 µM | TGI (SF-268 CNS): 34.4 µM | GI50 (HCT-116 colon): 17.1 µM | TGI (HCT-116 colon): 39.3 µM | GI50 (TK-10 renal): 385 nM | TGI (TK-10 renal): 7.77 µM | GI50 (HOP-92 NSCLC): 13.6 µM | TGI (HOP-92 NSCLC): 43.7 µM | GI50 (MALME-3M melanoma): 11.6 µM | TGI (MALME-3M melanoma): 26.8 µM | GI50 (OVCAR-5 ovarian): 22.2 µM | TGI (OVCAR-5 ovarian): > 100 µM | GI50 (A549 NSCLC): 13.2 µM | TGI (A549 NSCLC): > 100 µM | GI50 (T-47D breast): 3.49 µM | TGI (T-47D breast): > 87.1 µM | GI50 (CCRF-CEM leukemia): 19.4 µM | TGI (CCRF-CEM leukemia): > 73.2 µM | GI50 (SK-MEL-2 melanoma): 18.2 µM | TGI (SK-MEL-2 melanoma): 40 µM | GI50 (NCI-H460 lung): 29.8 µM | TGI (NCI-H460 lung): > 89.7 µM | GI50 (SF-295 CNS): 22.4 µM | TGI (SF-295 CNS): > 76.6 µM | GI50 (HL-60(TB) leukemia): 15.5 µM | TGI (HL-60(TB) leukemia): 49.7 µM | GI50 (HCT-15 colon): 15.3 µM | TGI (HCT-15 colon): 46.5 µM | GI50 (U251 CNS): 17.6 µM | TGI (U251 CNS): > 77.1 µM | GI50 (DU-145 prostate): 6.82 µM | TGI (DU-145 prostate): 61.3 µM
